Data from patent US10202361B2, “Pyridazinones as herbicides” (E I DU PONT DE NEMOURS AND COMPANY, priority 2014, dated 2019).

Legend:
Experiment in all cases: Test D pre-/postemergence controlled growth environment herbicide test
Type in all cases: in vivo
Conditions in all cases: scale 0 to 100
[1] = system: barley, spring (spring barley, Hordeum vulgare)
How it was run: (§1)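 Herbicidal effect, both preemergence (silt loam soil) and postemergence (1- to 4-leaf plants, peat-based medium), was scored 14–21 d post-treatment on a 0–100 control scale relative to untreated plants; applications used a non-phytotoxic solvent formulation with surfactant.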

[2] = system: canarygrass (Phalaris minor)
How it was run: as §1

[3] = system: field poppy (Papaver rhoeas)
How it was run: as §1

[4] = system: buckwheat, wild (wild buckwheat, Polygonum convolvulus)
How it was run: as §1

[5] = system: deadnettle (henbit deadnettle, Lamium amplexicaule)
How it was run: as §1

[6] = system: chamomile (scentless chamomile, Matricaria inodora)
How it was run: as §1

[7] = system: bluegrass (annual bluegrass, Poa annua)
How it was run: as §1

[8] = system: speedwell (bird's-eye speedwell, Veronica persica)
How it was run: as §1

[9] = system: downy bromegrass (Bromus tectorum)
How it was run: as §1

[10] = system: radish, wild (wild radish, Raphanus raphanistrum)
How it was run: as §1

[11] = system: barley, winter (winter barley, Hordeum vulgare)
How it was run: as §1

Measured: Plant response rating

COc1cc(=O)n(-c2ccc(F)cc2)nc1Cc1ccnc(C(F)(F)F)c1 [Compound 17, 2-(4-fluorophenyl)-5-methoxy-6-[[2-(trifluoromethyl)-4-pyridinyl]methyl]-3 (2H)-pyridazinone]
70: [1]; Preemergence, 250 g ai/ha
10: [1]; Postemergence, 62 g ai/ha | [2]; Postemergence, 31 g ai/ha | [2]; Preemergence, 125 g ai/ha | [4]; Postemergence, 31 g ai/ha | [4]; Postemergence, 62 g ai/ha | [4]; Preemergence, 62 g ai/ha | [7]; Postemergence, 250 g ai/ha | [8]; Postemergence, 31 g ai/ha | [9]; Postemergence, 31 g ai/ha | [9]; Postemergence, 62 g ai/ha | [9]; Preemergence, 31 g ai/ha | [9]; Preemergence, 62 g ai/ha | [11]; Preemergence, 31 g ai/ha
60: [6]; Postemergence, 250 g ai/ha | [6]; Postemergence, 500 g ai/ha | [7]; Preemergence, 250 g ai/ha | [10]; Postemergence, 125 g ai/ha
30: [2]; Postemergence, 250 g ai/ha | [2]; Preemergence, 250 g ai/ha | [4]; Preemergence, 125 g ai/ha | [9]; Postemergence, 500 g ai/ha | [9]; Preemergence, 250 g ai/ha | [10]; Postemergence, 31 g ai/ha | [10]; Preemergence, 31 g ai/ha | [11]; Postemergence, 250 g ai/ha
95: [6]; Preemergence, 125 g ai/ha
100: [3]; Postemergence, 500 g ai/ha | [3]; Preemergence, 31 g ai/ha | [3]; Preemergence, 62 g ai/ha | [3]; Preemergence, 125 g ai/ha | [3]; Preemergence, 250 g ai/ha | [3]; Preemergence, 500 g ai/ha | [4]; Postemergence, 500 g ai/ha | [4]; Preemergence, 250 g ai/ha | [4]; Preemergence, 500 g ai/ha | [5]; Postemergence, 500 g ai/ha | [5]; Preemergence, 31 g ai/ha | [5]; Preemergence, 62 g ai/ha | [5]; Preemergence, 125 g ai/ha | [5]; Preemergence, 250 g ai/ha | [5]; Preemergence, 500 g ai/ha | [6]; Preemergence, 250 g ai/ha | [6]; Preemergence, 500 g ai/ha | [8]; Postemergence, 62 g ai/ha | [8]; Postemergence, 125 g ai/ha | [8]; Postemergence, 250 g ai/ha | [8]; Postemergence, 500 g ai/ha | [8]; Preemergence, 31 g ai/ha | [8]; Preemergence, 62 g ai/ha | [8]; Preemergence, 125 g ai/ha | [8]; Preemergence, 250 g ai/ha | [8]; Preemergence, 500 g ai/ha | [10]; Postemergence, 250 g ai/ha | [10]; Postemergence, 500 g ai/ha | [10]; Preemergence, 62 g ai/ha | [10]; Preemergence, 125 g ai/ha | [10]; Preemergence, 250 g ai/ha | [10]; Preemergence, 500 g ai/ha
35: [1]; Postemergence, 500 g ai/ha | [2]; Postemergence, 500 g ai/ha | [10]; Postemergence, 62 g ai/ha | [11]; Postemergence, 500 g ai/ha
75: [3]; Postemergence, 62 g ai/ha | [3]; Postemergence, 125 g ai/ha | [4]; Postemergence, 250 g ai/ha | [11]; Preemergence, 250 g ai/ha
80: [6]; Preemergence, 62 g ai/ha | [11]; Preemergence, 500 g ai/ha
65: [5]; Postemergence, 125 g ai/ha
90: [1]; Preemergence, 500 g ai/ha | [3]; Postemergence, 250 g ai/ha
40: [4]; Postemergence, 125 g ai/ha | [6]; Postemergence, 62 g ai/ha | [6]; Postemergence, 125 g ai/ha | [11]; Preemergence, 125 g ai/ha
20: [1]; Preemergence, 62 g ai/ha | [1]; Preemergence, 125 g ai/ha | [2]; Postemergence, 62 g ai/ha | [2]; Postemergence, 125 g ai/ha | [6]; Postemergence, 31 g ai/ha | [7]; Postemergence, 500 g ai/ha | [11]; Preemergence, 62 g ai/ha
98: [5]; Postemergence, 250 g ai/ha
5: [1]; Postemergence, 31 g ai/ha | [7]; Postemergence, 31 g ai/ha | [7]; Postemergence, 62 g ai/ha | [7]; Postemergence, 125 g ai/ha
15: [1]; Postemergence, 125 g ai/ha | [1]; Postemergence, 250 g ai/ha | [1]; Preemergence, 31 g ai/ha | [9]; Postemergence, 125 g ai/ha | [9]; Preemergence, 125 g ai/ha | [11]; Postemergence, 31 g ai/ha | [11]; Postemergence, 62 g ai/ha
50: [2]; Preemergence, 500 g ai/ha | [3]; Postemergence, 31 g ai/ha | [5]; Postemergence, 31 g ai/ha | [5]; Postemergence, 62 g ai/ha | [9]; Preemergence, 500 g ai/ha
25: [7]; Preemergence, 125 g ai/ha | [9]; Postemergence, 250 g ai/ha | [11]; Postemergence, 125 g ai/ha
0: [2]; Preemergence, 31 g ai/ha | [2]; Preemergence, 62 g ai/ha | [4]; Preemergence, 31 g ai/ha | [6]; Preemergence, 31 g ai/ha | [7]; Preemergence, 31 g ai/ha | [7]; Preemergence, 62 g ai/ha
85: [7]; Preemergence, 500 g ai/ha
